# Earlier results in patent US20090239878A1, “COMBINATIONS OF (A) AN ATP-COMPETITIVE INHIBITOR OF C-ABL KINASE ACTIVITY WITH (B) TWO OR MORE OTHER ANTINEOPLASTIC AGENTS” (priority 2002, published 2009).
# Experiments:
# [1] = test system: CEM/ara-C/I monoclonal clone; conditions: ara-C resistant cell line versus CEM/0
# [2] = test system: platelet-derived growth factor receptor; conditions: preclinical studies
# [3] = target: c-kit receptor (Homo sapiens, UniProt P10721); conditions: preclinical studies
# c-kit receptor, sequence (P10721 26-976): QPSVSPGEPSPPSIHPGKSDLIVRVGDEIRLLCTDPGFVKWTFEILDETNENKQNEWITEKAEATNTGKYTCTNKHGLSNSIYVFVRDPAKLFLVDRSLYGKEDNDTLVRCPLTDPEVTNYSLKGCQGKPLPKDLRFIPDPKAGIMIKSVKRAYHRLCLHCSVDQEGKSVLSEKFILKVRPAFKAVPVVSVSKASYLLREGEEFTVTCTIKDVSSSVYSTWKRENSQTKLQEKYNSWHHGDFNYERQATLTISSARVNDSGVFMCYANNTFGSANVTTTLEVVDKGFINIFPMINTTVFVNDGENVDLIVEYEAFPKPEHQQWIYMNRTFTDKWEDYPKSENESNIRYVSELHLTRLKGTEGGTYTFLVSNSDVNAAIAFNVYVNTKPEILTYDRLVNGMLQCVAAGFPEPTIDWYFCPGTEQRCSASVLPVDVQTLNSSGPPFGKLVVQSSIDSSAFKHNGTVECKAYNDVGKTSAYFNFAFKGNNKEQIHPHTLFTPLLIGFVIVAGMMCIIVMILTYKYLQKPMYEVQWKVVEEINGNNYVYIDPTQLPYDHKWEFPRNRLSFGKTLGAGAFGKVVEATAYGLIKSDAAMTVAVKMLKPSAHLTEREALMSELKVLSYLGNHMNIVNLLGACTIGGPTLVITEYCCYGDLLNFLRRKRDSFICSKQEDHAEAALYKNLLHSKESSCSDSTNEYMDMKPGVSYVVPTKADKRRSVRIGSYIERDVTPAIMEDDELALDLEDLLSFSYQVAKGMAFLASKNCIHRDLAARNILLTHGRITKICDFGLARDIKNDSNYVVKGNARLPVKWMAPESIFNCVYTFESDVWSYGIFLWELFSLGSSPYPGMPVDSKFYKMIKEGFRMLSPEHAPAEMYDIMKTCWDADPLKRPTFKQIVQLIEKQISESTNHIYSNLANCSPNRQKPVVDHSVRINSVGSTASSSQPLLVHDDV
compound,measurement,setting,value
"Nc1ccn([C@@H]2O[C@H](CO)[C@@H](O)[C@@H]2O)c(=O)n1 [ara-C, cytosine arabinoside]",sensitivity to ara-C relative to wild type,[1],less than 1 % of the wild type CEM/0 cell line
N-{5-[4-(4-methyl-piperazino-methyl)-benzoylamido]-2-methylphenyl}-4-(3-pyridyl)-2-pyrimidine-amine [STI571],inhibition of kinase activity,[2],inhibits the kinase activities
same,inhibition of kinase activity,[3],inhibits the kinase activities
